Experiment: recombinant barcode read abundance after kanamycin selection (control-corrected) (log10(CPM+1)); higher = more efficient recombination; sequences stand for … in AGTGCAGAGAAAATCGGCCAGTTTTCTCTGCCTGCAGTCCGCATGCCGT…AGATTTATGCAGCGGACTGCCTTTCTCCCAAAGTGATAAACCGGACAGTATCATGGACCGGTTTTCCCGGTAATCCGTATTTGCAAGGTTGGTTTCACT; site = the 11-nt target
In short: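 A promoter, a target, a barcode and the first 104 bridge RNA bases under J23119 made up each oligo. Oligos were Gibson-cloned into a vector bearing the other 73 bp and a T7-inducible recombinase, then co-electroporated into E. coli with a donor plasmid and plated in duplicate on chloramphenicol/ampicillin LB agar (control) or chloramphenicol/ampicillin/kanamycin with 0.1 mM IPTG. Recombination efficiency is the averaged, control-corrected counts per million of recombinant-junction barcodes. Reported values are log10(CPM+1).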
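Further: IS621 recombinase and bridge RNA in Escherichia coli cells.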

Sequence	recombinant barcode read abundance (log10)
GAGGCTCCTTGGGTTCTAACCTGTTGCCC (site GAGGCTCCTGG)	1.26
GAGGCTCCTTGGGTTCTAACCTGTTGCCC (site GAGGCTCCTTG)	0.104
GAGGGCACTTGGGTTCTAACCTGTTGCCA (site GAGAGCACTTG)	0.074
GAGGGCACTTGGGTTCTAACCTGTTGCCA (site GAGGGCACTTG)	0.917
GAGGGCCCTTGGGTTCTAACCTGTTGCTG (site GAGGGCCCTCA)	2.8
GAGGGCCCTTGGGTTCTAACCTGTTGCTG (site GAGGGCCCTCC)	0.808
GAGGGCCCTTGGGTTCTAACCTGTTGCTG (site GAGGGCCCTCG)	2.03
GAGGGCCCTTGGGTTCTAACCTGTTGCTG (site GAGGGCCCTCT)	1.56
GAGGGCTCTTGGGTTCTAACCTGTTGCGG (site AGTTCACCTTA)	0.0921
GAGGGCTCTTGGGTTCTAACCTGTTGCGG (site GAGGGCTCTCC)	2.73
GAGGGGTCTTGGGTTCTAACCTGTTGCAC (site CAGGCGTCTGT)	0.122
GAGGGGTCTTGGGTTCTAACCTGTTGCAC (site GAGGGGTCTGT)	2.81
GAGGGTCCTTGGGTTCTAACCTGTTGCAT (site GAGGGTCCTAA)	0.573
GAGGGTCCTTGGGTTCTAACCTGTTGCAT (site GAGGGTCCTAC)	0.542
GAGGGTCCTTGGGTTCTAACCTGTTGCAT (site GAGGGTCCTAG)	1.65
GAGGGTCCTTGGGTTCTAACCTGTTGCAT (site GAGGGTCCTAT)	2.74
GAGGTAACTTGGGTTCTAACCTGTTGCAC (site GAGGTAACTGT)	1.66
GAGGTAACTTGGGTTCTAACCTGTTGCAC (site TGTACGCCTAG)	0.0446
GAGGTAACTTGGGTTCTAACCTGTTGCCT (site GAAGTAACTAG)	0.0669
GAGGTAACTTGGGTTCTAACCTGTTGCCT (site GACGTAACTAG)	1.23
GAGGTAACTTGGGTTCTAACCTGTTGCCT (site GAGGTAACTAG)	0.0487
GAGGTAACTTGGGTTCTAACCTGTTGCCT (site GATGTAACTAG)	0.822

Sequence	recombinant barcode read abundance (log10)
GAGTACTCTTGGGTTCTAACCTGTTGCTA (site GAGTACTCTTA)	1.8
GAGTACTCTTGGGTTCTAACCTGTTGCTA (site GAGTCTTCTTA)	0.00735
GAGTAGTCTTGGGTTCTAACCTGTTGCTT (site GAGTAGACTAA)	0.941
GAGTAGTCTTGGGTTCTAACCTGTTGCTT (site GAGTAGTCTAA)	2.05
GAGTCGTCTTGGGTTCTAACCTGTTGCTT (site GAGCCATCTAA)	0.402
GAGTCGTCTTGGGTTCTAACCTGTTGCTT (site GAGTCGTCTAA)	1.45
GAGTGAACTTGGGTTCTAACCTGTTGCCA (site GAGTGAACTTG)	0.849
GAGTGAACTTGGGTTCTAACCTGTTGCCA (site GTGTGTACTTG)	0.435
GAGTGCCCTTGGGTTCTAACCTGTTGCTT (site GAGTGCCCTAA)	0.78
GAGTGCCCTTGGGTTCTAACCTGTTGCTT (site GTGTGGCCTAA)	0.128
GAGTGGCCTTGGGTTCTAACCTGTTGCAT (site GAGTGGCCTAA)	0.242
GAGTGGCCTTGGGTTCTAACCTGTTGCAT (site GAGTGGCCTAC)	0.385
GAGTGGCCTTGGGTTCTAACCTGTTGCAT (site GAGTGGCCTAG)	0.318
GAGTGGCCTTGGGTTCTAACCTGTTGCAT (site GAGTGGCCTAT)	0.883
GAGTGGCCTTGGGTTCTAACCTGTTGCGG (site GAGTAGCCTCC)	0.831
GAGTGGCCTTGGGTTCTAACCTGTTGCGG (site GAGTCGCCTCC)	0.0473
GAGTGGCCTTGGGTTCTAACCTGTTGCGG (site GAGTGGCCTCC)	1.84
GAGTGGCCTTGGGTTCTAACCTGTTGCGG (site GAGTTGCCTCC)	0.00446
GAGTGGCCTTGGGTTCTAACCTGTTGCTT (site GAGTGGCCTAA)	1.54
GAGTGGCCTTGGGTTCTAACCTGTTGCTT (site GAGTGGCCTAC)	0.494
GAGTGGCCTTGGGTTCTAACCTGTTGCTT (site GAGTGGCCTAG)	0.068
GAGTGGCCTTGGGTTCTAACCTGTTGCTT (site GAGTGGCCTAT)	0.541

Sequence	recombinant barcode read abundance (log10)
GAGTTACCTTGGGTTCTAACCTGTTGCGT (site GAGTTACCTAC)	2.6
GAGTTACCTTGGGTTCTAACCTGTTGCGT (site GAGTTCCCTAC)	0.192
GAGTTACCTTGGGTTCTAACCTGTTGCGT (site GAGTTGCCTAC)	0.229
GAGTTACCTTGGGTTCTAACCTGTTGCGT (site GAGTTTCCTAC)	0.0625
GAGTTCACTTGGGTTCTAACCTGTTGCCT (site GAGTTCACTAG)	0.618
GAGTTCACTTGGGTTCTAACCTGTTGCCT (site GGGTTCACTCG)	0.0995
GAGTTCGCTTGGGTTCTAACCTGTTGCGG (site GAGTTCGCTCC)	1.08
GAGTTCGCTTGGGTTCTAACCTGTTGCGG (site TAGTCCGCTCC)	0
GAGTTGTCTTGGGTTCTAACCTGTTGCGG (site CTCGCCACTAG)	0.0798
GAGTTGTCTTGGGTTCTAACCTGTTGCGG (site GAGTTGTCTCC)	1.83
GATAACGCTTGGGTTCTAACCTGTTGCCT (site ATGGTACCTTA)	0.0115
GATAACGCTTGGGTTCTAACCTGTTGCCT (site GATAACGCTAG)	1.05
GATACGCCTTGGGTTCTAACCTGTTGCCT (site GATACGACTAG)	0.0197
GATACGCCTTGGGTTCTAACCTGTTGCCT (site GATACGCCTAG)	0.134
GATACGCCTTGGGTTCTAACCTGTTGCCT (site GATACGGCTAG)	0.167
GATACGCCTTGGGTTCTAACCTGTTGCCT (site GATACGTCTAG)	0.139
GATACGTCTTGGGTTCTAACCTGTTGCCT (site GATACGACTAG)	0.352
GATACGTCTTGGGTTCTAACCTGTTGCCT (site GATACGCCTAG)	0.187
GATACGTCTTGGGTTCTAACCTGTTGCCT (site GATACGGCTAG)	0.195
GATACGTCTTGGGTTCTAACCTGTTGCCT (site GATACGTCTAG)	0.623
GATAGAACTTGGGTTCTAACCTGTTGCTT (site GAGAGGACTAA)	0.204
GATAGAACTTGGGTTCTAACCTGTTGCTT (site GATAGAACTAA)	0.94

Sequence	recombinant barcode read abundance (log10)
GATAGGACTTGGGTTCTAACCTGTTGCCT (site GATAGGACTAG)	0.647
GATAGGACTTGGGTTCTAACCTGTTGCCT (site GATGGGACTCG)	0
GATATAGCTTGGGTTCTAACCTGTTGCCT (site GATAGAGCTCG)	0.54
GATATAGCTTGGGTTCTAACCTGTTGCCT (site GATATAGCTAG)	1.06
GATCAACCTTGGGTTCTAACCTGTTGCCT (site GATCAACCTAG)	1.62
GATCAACCTTGGGTTCTAACCTGTTGCCT (site GCTCAACCTAG)	0.0583
GATCAACCTTGGGTTCTAACCTGTTGCCT (site GGTCAACCTAG)	0.0197
GATCAACCTTGGGTTCTAACCTGTTGCCT (site GTTCAACCTAG)	0.235
GATCACCCTTGGGTTCTAACCTGTTGCAT (site CGAGTGTCTTA)	0.193
GATCACCCTTGGGTTCTAACCTGTTGCAT (site GATCACCCTAT)	1.68
GATCGATCTTGGGTTCTAACCTGTTGCAT (site GATCGATCTAA)	0.0308
GATCGATCTTGGGTTCTAACCTGTTGCAT (site GATCGATCTAC)	0.163
GATCGATCTTGGGTTCTAACCTGTTGCAT (site GATCGATCTAG)	0.307
GATCGATCTTGGGTTCTAACCTGTTGCAT (site GATCGATCTAT)	0.666
GATGAGACTTGGGTTCTAACCTGTTGCCG (site GATGAGACTCG)	2.22
GATGAGACTTGGGTTCTAACCTGTTGCCG (site GCTGAGACTCG)	0.223
GATGAGTCTTGGGTTCTAACCTGTTGCCT (site GATGAGTCTAA)	0.71
GATGAGTCTTGGGTTCTAACCTGTTGCCT (site GATGAGTCTAG)	1.9
GATGCCTCTTGGGTTCTAACCTGTTGCCT (site GAAGCATCTAG)	0.147
GATGCCTCTTGGGTTCTAACCTGTTGCCT (site GATGCCTCTAG)	2.06

Reference: the supplement of paper PMC11208160
